What was measured:
[1] = target: T1, Nuclear receptor ROR-alpha (Homo sapiens, UniProt P35398); assay: Inverse agonist activity at human ROR-alpha1 expressed in HEK293 cells after 16 hrs by luciferase reporter gene assay; type: cell-based
T1 sequence (P35398 whole entry): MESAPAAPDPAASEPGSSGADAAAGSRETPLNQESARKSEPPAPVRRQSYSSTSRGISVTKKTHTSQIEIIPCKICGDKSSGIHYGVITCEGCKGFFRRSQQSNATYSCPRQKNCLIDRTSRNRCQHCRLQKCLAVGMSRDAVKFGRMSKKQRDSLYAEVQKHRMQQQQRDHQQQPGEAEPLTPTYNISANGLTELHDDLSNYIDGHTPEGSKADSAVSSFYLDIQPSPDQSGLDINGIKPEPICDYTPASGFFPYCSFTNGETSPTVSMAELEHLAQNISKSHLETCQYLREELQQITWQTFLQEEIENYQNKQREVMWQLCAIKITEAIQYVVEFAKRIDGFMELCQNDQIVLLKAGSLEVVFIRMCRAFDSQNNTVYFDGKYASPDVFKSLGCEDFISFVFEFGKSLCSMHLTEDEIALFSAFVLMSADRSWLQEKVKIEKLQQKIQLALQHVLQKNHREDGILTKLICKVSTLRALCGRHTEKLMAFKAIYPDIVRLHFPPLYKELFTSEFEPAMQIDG

[2] = target: T2, Nuclear receptor ROR-beta (Homo sapiens, UniProt Q92753); assay: Inverse agonist activity at human ROR-beta expressed in HEK293 cells after 16 hrs by luciferase reporter gene assay; type: cell-based
T2 sequence (Q92753 whole entry): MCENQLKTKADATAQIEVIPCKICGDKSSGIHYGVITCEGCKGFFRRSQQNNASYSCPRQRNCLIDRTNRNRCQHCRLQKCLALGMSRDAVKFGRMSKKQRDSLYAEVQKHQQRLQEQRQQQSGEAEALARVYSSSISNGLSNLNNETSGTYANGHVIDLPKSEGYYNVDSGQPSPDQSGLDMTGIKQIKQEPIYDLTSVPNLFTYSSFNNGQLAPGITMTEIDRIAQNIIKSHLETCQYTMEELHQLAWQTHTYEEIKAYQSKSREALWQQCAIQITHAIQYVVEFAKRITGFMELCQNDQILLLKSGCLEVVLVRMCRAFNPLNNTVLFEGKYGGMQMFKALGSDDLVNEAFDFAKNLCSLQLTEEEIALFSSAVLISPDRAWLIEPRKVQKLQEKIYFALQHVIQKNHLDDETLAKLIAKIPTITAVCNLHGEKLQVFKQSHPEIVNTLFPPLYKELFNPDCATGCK

[3] = target: T3, Nuclear receptor ROR-gamma (Homo sapiens, UniProt P51449); assay: Inverse agonist activity at human ROR-gamma1 expressed in HEK293 cells after 16 hrs by luciferase reporter gene assay; type: cell-based
T3 sequence (P51449 whole entry): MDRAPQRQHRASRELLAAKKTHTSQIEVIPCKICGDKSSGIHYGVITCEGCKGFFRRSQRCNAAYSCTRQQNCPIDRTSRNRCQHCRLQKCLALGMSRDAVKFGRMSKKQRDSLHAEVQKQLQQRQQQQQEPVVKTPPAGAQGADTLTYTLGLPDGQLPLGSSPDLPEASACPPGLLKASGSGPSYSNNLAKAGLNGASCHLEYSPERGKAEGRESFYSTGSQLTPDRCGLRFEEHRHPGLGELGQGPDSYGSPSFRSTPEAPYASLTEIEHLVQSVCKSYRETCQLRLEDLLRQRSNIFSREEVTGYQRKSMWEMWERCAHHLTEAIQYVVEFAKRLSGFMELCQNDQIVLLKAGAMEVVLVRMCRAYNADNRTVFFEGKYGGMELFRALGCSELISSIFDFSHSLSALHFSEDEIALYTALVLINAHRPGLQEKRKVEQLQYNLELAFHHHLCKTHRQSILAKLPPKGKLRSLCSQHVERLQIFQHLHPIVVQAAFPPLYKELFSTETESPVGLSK

[4] = target: T4, Oxysterols receptor LXR-alpha (Homo sapiens, UniProt Q13133); assay: Agonist activity at human LXR-alpha expressed in HEK293 cells after 16 hrs by luciferase reporter gene assay
T4 sequence (Q13133 whole entry): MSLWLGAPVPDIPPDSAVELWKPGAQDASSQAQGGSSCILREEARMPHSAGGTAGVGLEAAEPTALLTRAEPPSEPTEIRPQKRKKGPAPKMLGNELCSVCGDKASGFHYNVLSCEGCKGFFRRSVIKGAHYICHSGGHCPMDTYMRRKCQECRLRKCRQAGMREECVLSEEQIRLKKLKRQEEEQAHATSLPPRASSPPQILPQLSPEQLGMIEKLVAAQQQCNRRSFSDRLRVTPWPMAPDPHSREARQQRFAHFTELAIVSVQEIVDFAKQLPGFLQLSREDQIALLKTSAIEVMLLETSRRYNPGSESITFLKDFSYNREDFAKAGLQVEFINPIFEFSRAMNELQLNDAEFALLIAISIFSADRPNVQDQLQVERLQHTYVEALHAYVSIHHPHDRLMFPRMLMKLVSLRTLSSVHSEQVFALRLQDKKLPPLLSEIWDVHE

[5] = target: T4, Oxysterols receptor LXR-alpha; assay: Antagonist activity at human LXR-alpha expressed in HEK293 cells assessed as inhibition of T0901317-induced effect after 16 hrs by luciferase reporter gene assay; type: cell-based
[6] = target: T5, Oxysterols receptor LXR-beta (Homo sapiens, UniProt P55055); assay: Agonist activity at human LXR-beta expressed in HEK293 cells after 16 hrs by luciferase reporter gene assay
T5 sequence (P55055 whole entry): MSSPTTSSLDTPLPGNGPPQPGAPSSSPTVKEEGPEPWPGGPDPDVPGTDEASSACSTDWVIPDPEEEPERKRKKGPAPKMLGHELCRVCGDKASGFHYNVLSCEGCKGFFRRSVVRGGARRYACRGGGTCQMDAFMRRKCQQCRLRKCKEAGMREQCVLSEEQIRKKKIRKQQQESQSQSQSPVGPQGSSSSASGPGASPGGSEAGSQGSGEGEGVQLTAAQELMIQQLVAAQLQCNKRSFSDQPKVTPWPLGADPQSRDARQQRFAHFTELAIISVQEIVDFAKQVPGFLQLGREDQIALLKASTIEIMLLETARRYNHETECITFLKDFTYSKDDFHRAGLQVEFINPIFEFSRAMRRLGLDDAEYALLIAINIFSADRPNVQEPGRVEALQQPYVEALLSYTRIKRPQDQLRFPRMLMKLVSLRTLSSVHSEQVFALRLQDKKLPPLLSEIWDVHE

[7] = target: T5, Oxysterols receptor LXR-beta; assay: Antagonist activity at human LXR-beta expressed in HEK293 cells assessed as inhibition of T0901317-induced effect after 16 hrs by luciferase reporter gene assay; type: cell-based
[8] = target: T4, Oxysterols receptor LXR-alpha; assay: Antagonist activity at human LXR-alpha expressed in HEK293 cells after 16 hrs by luciferase reporter gene assay; type: cell-based
[9] = target: T5, Oxysterols receptor LXR-beta; assay: Antagonist activity at human LXR-beta expressed in HEK293 cells after 16 hrs by luciferase reporter gene assay; type: cell-based
HEK293 = assay: Cytotoxicity against HEK293 cells; type: cell-based; conditions: human

Row | Compound | IC50 ([1]; read-out: IC50) [µM] | IC50 ([2]; read-out: IC50) [µM] | IC50 ([3]; read-out: IC50) [µM] | also measured
1 | CCCCn1c(=O)c2ccc(Cl)cc2c2cc(C(O)(C(F)(F)F)C(F)(F)F)ccc21 | – | – | – | EC50 [4]: Not Active; IC50 ([5]; read-out: IC50): > 3 µM; EC50 [6]: Not Active; IC50 ([7]; read-out: IC50): 0.68 µM
2 | CCCCn1c(=O)c2ccccc2c2ccccc21 | 10.2 | 13.4 | 14.5 | –
3 | CCCCCCCCCCCCc1ccc2c(c1)c1ccccc1c(=O)n2CCCC | – | – | – | IC50 ([1]; hek293): Not Active; IC50 ([2]; hek293): Not Active; IC50 ([3]; hek293): Not Active
4 | CCCCn1c(=O)c2ccccc2c2cc(C(O)(C(F)(F)F)C(F)(F)F)ccc21 | 9.8 | 6.5 | 3.9 | –
5 | CCCCCCn1c(=O)c2ccccc2c2cc(C(O)(C(F)(F)F)C(F)(F)F)ccc21 | 7.6 | 5.4 | 4.7 | –
6 | CCCn1c(=O)c2ccccc2c2cc(C(O)(C(F)(F)F)C(F)(F)F)ccc21 | 10.8 | 8.2 | 4.2 | –
7 | O=c1[nH]c2ccc(C(O)(C(F)(F)F)C(F)(F)F)cc2c2ccccc12 | > 20 | > 20 | > 20 | –
8 | O=S(=O)(c1ccccc1)N(CC(F)(F)F)c1ccc(C(O)(C(F)(F)F)C(F)(F)F)cc1 [T091317] | – | – | – | IC50 ([2]; hek293): Not Active; IC50 [8]: Not Active; IC50 [9]: Not Active
9 | CCCCn1c(=O)c2c(OC)cccc2c2cc(C(O)(C(F)(F)F)C(F)(F)F)ccc21 | – | – | – | Activity (HEK293): Toxic
10 | CCCCn1c(=O)c2cc(OC)ccc2c2cc(C(O)(C(F)(F)F)C(F)(F)F)ccc21 | – | – | – | Activity (HEK293): Toxic
11 | Cn1c(=O)c2ccccc2c2cc(C(O)(C(F)(F)F)C(F)(F)F)ccc21 | > 20 | > 20 | > 20 | –
12 | CC(=O)Nc1nc(C)c(S(=O)(=O)Nc2ccc(C(O)(C(F)(F)F)C(F)(F)F)cc2)s1 | – | – | – | EC50 [4]: Not Active; IC50 ([5]; hek293): Not Active; EC50 [6]: Not Active; IC50 ([7]; hek293): Not Active
13 | CCn1c(=O)c2ccccc2c2cc(C(O)(C(F)(F)F)C(F)(F)F)ccc21 | > 20 | > 20 | > 20 | –
14 | CCCCn1c(=O)c2ccccc2c2cc(C)ccc21 | 17.6 | 17.1 | 16.8 | –

More lines, main results first:

Row | IC50 ([1]; read-out: IC50) [µM] | IC50 ([2]; read-out: IC50) [µM] | IC50 ([3]; read-out: IC50) [µM] | Compound | also measured
15 | > 20 | > 20 | > 20 | CCCCCCCCCn1c(=O)c2ccccc2c2cc(C(O)(C(F)(F)F)C(F)(F)F)ccc21 | –
16 | > 10 | > 10 | > 10 | CCCCn1c(=O)c2ccccc2c2cc(C(O)(C(F)(F)F)C(F)(F)F)cc(OC)c21 | –
17 | 9 | 7.9 | 9.2 | CCCCn1c(=O)c2ccccc2c2cc(CC)ccc21 | –
18 | > 20 | > 20 | > 20 | CCCCn1c(=O)c2ccccc2c2cc(CO)ccc21 | –
19 | 5.3 | 7.7 | 1.1 | CCCCn1c(=O)c2ccc(OC)cc2c2cc(C(O)(C(F)(F)F)C(F)(F)F)ccc21 | –
20 | 9.1 | 7.5 | 5.7 | CCCCn1c(=O)c2cccc(OC)c2c2cc(C(O)(C(F)(F)F)C(F)(F)F)ccc21 | –
21 | 7.8 | 10.9 | 9.2 | CCCCn1c(=O)c2ccccc2c2cc(C(O)(C(F)(F)F)C(F)(F)F)c(OC)cc21 | –
22 | 11.8 | 12.8 | 10.4 | CCCCn1c(=O)c2ccccc2c2cc(C(C)(C)C)ccc21 | –

Source: ChEMBL document CHEMBL3259582, “Structure-activity relationship-guided development of retinoic acid receptor-related orphan receptor gamma (RORγ)-selective inverse agonists with a phenanthridin-6(5H)-one skeleton from a liver X receptor ligand” (Bioorg Med Chem, 2014)
